How the values were obtained:
[1] = system: middle cerebral artery occlusion (MCAO) animal models with ischemic strokes; assay: Evaluation of infarct volume by TTC staining after MCAO and reperfusion; assay type: in vivo, Sprague-Dawley rats; settings: Experiment 1; MCAO 90 min, reperfusion 72 hr; single dose: 45 mg/kg MgSO4 i.v. after MCAO or 6 mg/kg nimesulide i.p. before reperfusion
Method: 150 Sprague-Dawley rats (SD rats) weighing 220-250 gm were purchased from the Laboratory Animal Center of National Chung Kung University. In the present experiments, middle cerebral artery occlusion (MCAO) known in the art was performed on SD rats to establish animal models with ischemic strokes by using occluding intra-luminal suture. The process for performing MCAO is briefly described as follows. A segment of 4-O nylon with blunted tip was inserted through the right internal carotid artery to occlude blood flow of middle cerebral artery (MCA). Laser Doppler flowmeter was used to monitor changes of cerebral blood flows in the MCA territory. […] Anesthetic time was limited to 20 minutes to minimize the influence of isoflurane on the outcome of MCAO. After recovery from anesthesia, rats without body asymmetry were regarded as failed MCAO models and excluded from further experiments. After MCAO was established for 90 min, intra-luminal occluder was removed to re-perfuse the brain. […] When SD rats in each group were treated with MCAO for 90 min and reperfusion for 72 hr, infarct volumes were evaluated by TTC staining.

[2] = system: middle cerebral artery occlusion (MCAO) animal models with ischemic strokes; assay: Evaluation of brain edema (brain water content, wet-dry method) after MCAO; assay type: in vivo, Sprague-Dawley rats; settings: Experiment 1; 48 hr after MCAO and reperfusion; 45 mg/kg MgSO4 i.v., 6 mg/kg nimesulide i.p.
Method: In the present experiments, middle cerebral artery occlusion (MCAO) known in the art was performed on SD rats to establish animal models with ischemic strokes by using occluding intra-luminal suture. The process for performing MCAO is briefly described as follows. A segment of 4-O nylon with blunted tip was inserted through the right internal carotid artery to occlude blood flow of middle cerebral artery (MCA). Laser Doppler flowmeter was used to monitor changes of cerebral blood flows in the MCA territory. […] Anesthetic time was limited to 20 minutes to minimize the influence of isoflurane on the outcome of MCAO. After recovery from anesthesia, rats without body asymmetry were regarded as failed MCAO models and excluded from further experiments. After MCAO was established for 90 min, intra-luminal occluder was removed to re-perfuse the brain. […] Herein, cerebral edema was determined by measuring the brain water content with the wet-dry method after MCAO was established for 48 hr. […] The difference of water content in ipsilateral and contralateral hemisphere (Δ% of water content) 48 hr after ischemia-reperfusion injury was evaluated with the wet-dry method.

SMILES | infarct volume compared to SVe group [1] | post-ischemia brain edema (Δ% of water content, ipsilateral vs contralateral hemisphere) compared to SVe group [2]
O=S(=O)([O-])[O-].[Mg+2] [MgSO4] | a decrease of infarct volume was not observed | cannot be Observed
CS(=O)(=O)Nc1ccc([N+](=O)[O-])cc1Oc1ccccc1 [nimesulide, N-(4-Nitro-2-phenoxyphenyl)methane-sulfonamide] | no neuro-protective effect | cannot be Observed
